# From patent US20260022341A1, “METHOD OF GENERATING A HOMOCELLULAR PROGENITOR CELL CULTURE FROM A HETEROCELLULAR TISSUE SAMPLE” (MOSA MEAT B.V., priority 2022, published 2026)
# Entries after “also recorded” stand apart in the source; their conditions may differ.
# Tests used:
# Assay type in all cases: cell-based, bovine
# SCs and FAPs [1] = assay: Compound screening: ratio of SCs in a cell culture of SCs and FAPs after one passage (flow cytometry); settings: SFM1 base medium, HGF 10×=50 ng/ml, IC 50 μM, HC 138 nM, T3 30 nM, DAPT 5 or 10 μM, FGF2 10×=100 ng/ml, SB203580 10 μM, IL6 20 ng/ml, PDGF-bb 10×=50 ng/ml
# Protocol: Excess visible fat and fibrous tissue was removed prior to dissociation, and muscle fibers were dissociated using collagenase AFC A (Worthington, CLSAFA, 2000U/ml) for 45 minutes at 37° C. Muscle isolates were incubated in 1× ACK erythrocyte lysis buffer for 1 minute at room temperature. Cells were resuspended in a serum-free proliferation medium (SFM1 medium) and immediately seeded into fibronectin (4 μg cm-2 bovine fibronectin; F1141, Merck/Sigma) coated tissue culture plates, and pre-cultured at 37° C. for 72 hours. The serum-free proliferation medium that was used is as disclosed in WO 2021/158103, the contents of which are incorporated herein by reference, and is referred to therein as “SFM1” and contains: albumin (5 mg/ml), somatotropin (2 ng/ml), L-Ascorbic acid 2-phosphate (50 μg/ml), hydrocortisone (36 ng/ml), a-linolenic acid (1 μg/ml), insulin (10 μg/ml), transferrin (5.5 μg/ml), sodium selenite (0.0067 μg/ml), ethanolamine (2 μg/ml), L-alanyl-L-glutamine or glutamine (2 mM), IL-6 (5 ng/ml), FGF2 also referred to as bFGF (10 ng/ml), IGF1 (100 ng/ml), VEGF (10 ng/ml), HGF (5 ng/ml), PDGF-bb (10 ng/ml) and DMEM/F12 basal medium. In the experiments described herein, the SFM1 medium is also referred to as control (Ctrl) or base medium.
# After 72 hours of pre-culture, FAPS were sorted using a MACSQuant Tyto sorter (Miltenyi) based on absence of expression of JAM1, CD45, and integrin alpha 7 (ITGA7), and the positive expression of integrin alpha 5 (ITGA5). SCs were sorted based on the absence of expression of JAM1, CD45, ITGA5, and the positive expression of ITGA7.
# After FACS sorting, FAP cells and SC cells were cultured on collagen Type I coated tissue culture flasks at 37° C. and 5% CO2 in a serum-free proliferation medium (SFM1). Purities of SCs and FAPs were assessed at the end of each passage by measuring the expression of ITGA7 and ITGA5 via flow cytometry as described below.
# Sorted SCs and FAPs were stained with ITGA7-PE and […]. Subsequently, cells were washed and analyzed on a MACSQuant 10 flow analyzer (Miltenyi). Unstained cells were used as a negative control, and to define gating parameters. For the compound screenings (FIG. 2A), percentage of SCs relative to FAPs was determined after one culture passage.
# These informed the selection of compounds to favor the proliferation of either of the two cell types. Increasing or decreasing the concentration of growth factors targeting these receptors, or adding compounds that target downstream pathways, altered the growth of SCs relative to FAPs (FIG. 2A, FIG. 2B). As only SCs and FAPs were present in the cell cultures of FIG. 2A and 2B, measuring the relative amount (ratio) of SCs likewise provides information about the relative amount (ratio) of FAPs in the respective media. The ratio of SCs in the respective cell media was normalized against a control ratio (Ctrl; set at 1) which means that a promotion of SCs results in an increase of SCs compared to the control culture (>1), whereas a relative decrease of SCs in the medium compared to the control culture (<1) denotes at the same time for a promotion of FAP proliferation in the respective media.
# SCs and FAPs [2] = assay: Long-term proliferation assay of SC/FAP mixtures on different coatings (FIG. 3); settings: compound applied as culture vessel coating, measured after every passage by ITGA7/ITGA5 flow cytometry
# Protocol: (§1) Cells were isolated, purified and cultured as described in Example 1. For long-term proliferation assays, mixtures of SCs and FAPs were cultured on different coatings (FIG. 3) or on Laminin 521 with different media (FIGS. 4A-4C). After every passage, the ratio of SCs to FAPs was measured as the ratio of ITGA7+/ITGA5−cells (SCs) to ITGA7−/ITGA5+cells (FAPs) via flow cytometry, as described in Example 1.
# Using long-term proliferation assays, combined with flow cytometry for ITGA7/ITGA5, we tested different compounds including extracellular matrix proteins tissue culture vessel coatings, and measured percentage of SCs over time in a cell culture that contains SCs and FAPs.
# SCs and FAPs [3] = assay: Long-term proliferation assay of SC/FAP mixtures on Laminin 521 with different media (FIGS. 4A-4C); settings: Laminin 521 coating
# Protocol: as §1
# Using Laminin 521 as a coating, we further used the previously identified compounds to adapt the base media (Ctrl) to favor the growth of SCs over FAPs (FIGS. 4A-4C).
# [4] = single media adaptation of base media (Ctrl): 10× HGF or T3 added
Molecule,"growth of SCs relative to FAPs (ratio of SCs normalized against control ratio, Ctrl set at 1) (SCs and FAPs [1])",percentage of SCs in total cells (SCs and FAPs) over long-term proliferation (SCs and FAPs [2]),further results
"C[S+]([O-])c1ccc(-c2nc(-c3ccc(F)cc3)c(-c3ccncc3)[nH]2)cc1 (stereo not shown) [SB203580, 4-{4-(4-Fluorophenyl)-2-[4-(methanesulfinyl)phenyl]-1H-imidazol-5-yl} pyridine]",specifically promoted the proliferation of SCs,–,–
C[C@H](NC(=O)Cc1cc(F)cc(F)c1)C(=O)N[C@H](C(=O)OC(C)(C)C)c1ccccc1 [DAPT],specifically promoted the proliferation of SCs,–,–
fibronectin,–,the proportion of FAPs increased quickly over 3 passages; also recorded: favor proliferation of FAPs,–
Laminin 521: extracellular matrix protein used as tissue culture vessel coating,–,the percentage of SCs remained high,percentage of SCs in total cells (SCs and FAPs) over long-term proliferation (SCs and FAPs [2]; listed as laminin 521): allow for maintaining high percentages of SCs during proliferation
collagen,–,the proportion of FAPs increased quickly over 3 passages,percentage of SCs in total cells (SCs and FAPs) over long-term proliferation (SCs and FAPs [2]; listed as Collagen): favor proliferation of FAPs
"N[C@@H](Cc1cc(I)c(Oc2ccc(O)c(I)c2)c(I)c1)C(=O)O [T3, Triiodothyronine, reference compound]",specifically promoted the proliferation of SCs,–,relative growth/proliferation of SCs compared to FAPs (SCs and FAPs [3]; [4]): promoted the relative growth/proliferation of SCs compared to FAPs
Interleukin 6 [IL-6],specifically promoted the proliferation of FAPs,–,–
"COc1ccc2c(c1)c(CC(=O)O)c(C)n2C(=O)c1ccc(Cl)cc1 [IC, Indomethacin]",specifically promoted the proliferation of SCs,–,–
hepatocyte growth factor [HGF],specifically promoted the proliferation of SCs,–,relative growth/proliferation of SCs compared to FAPs (SCs and FAPs [3]; [4]): promoted the relative growth/proliferation of SCs compared to FAPs
"C[C@]12CCC(=O)C=C1CC[C@@H]1[C@@H]2[C@@H](O)C[C@@]2(C)[C@H]1CC[C@]2(O)C(=O)CO [HC, Hydrocortisone]",specifically promoted the proliferation of SCs,–,–
fibroblast growth factor 2 [FGF2],specifically promoted the proliferation of SCs,–,–
"vitronectin: extracellular matrix protein used as tissue culture vessel coating (protein, UniProt P04004 20-478, looked up) Vitronectin: DQESCKGRCTEGFNVDKKCQCDELCSYYQSCCTDYTAECKPQVTRGDVFTMPEDEYTVYDDGEEKNNATVHEQVGGPSLTSDLQAQSKGNPEQTPVLKPEEEAPAPEVGASKPEGIDSRPETLHPGRPQPPAEEELCSGKPFDAFTDLKNGSLFAFRGQYCYELDEKAVRPGYPKLIRDVWGIEGPIDAAFTRINCQGKTYLFKGSQYWRFEDGVLDPDYPRNISDGFDGIPDNVDAALALPAHSYSGRERVYFFKGKQYWEYQFQHQPSQEECEGSSLSAVFEHFAMMQRDSWEDIFELLFWGRTSAGTRQPQFISRDWHGVPGQVDAAMAGRIYISGMAPRPSLAKKQRFRHRNRKGYRSQRGHSRGRNQNSRRPSRATWLSLFSSEESNLGANNYDDYRMDWLVPATCEPIQSVFFFSGDKYYRVNLRTRRVDTVDPPYPRSIAQYWLGCPAPGHL",–,the percentage of SCs remained high,percentage of SCs in total cells (SCs and FAPs) over long-term proliferation (SCs and FAPs [2]; listed as Vitronectin): allow for maintaining high percentages of SCs during proliferation
"PDGF-bb: growth factor of the base medium (protein, UniProt P01127 82-190, looked up) Platelet-derived growth …: SLGSLTIAEPAMIAECKTRTEVFEISRRLIDRTNANFLVWPPCVEVQRCSGCCNNRNVQCRPTQVQLRPVQVRKIEIVRKKPIFKKATVTLEDHLACKCETVAAARPVT",specifically promoted the proliferation of FAPs,–,relative growth/proliferation of SCs compared to FAPs (SCs and FAPs [3]; single media adaptation 0× PDGF-bb (PDGF-bb absent from base media)): promoted the relative growth/proliferation of SCs compared to FAPs
